Assay results: ChEMBL document CHEMBL2146422, “Viequeamide A, a cytotoxic member of the kulolide superfamily of cyclic depsipeptides from a marine button cyanobacterium” (2012)
Activity calls are given as the source filed them. No cut-off for these calls is given here. *1 amine or outer side, *2 acyl side, *3 side chain or, on linkers, in order; H or OH if unused. Where a SMILES comes first, the peptide text is derived from it. Bridges are numbered along the chain shown (N, C = ends). [ ]: non-standard residue; d: D form. X1 = C#CCCC[C@H](O[*:2])C(C)(C)C(=O)[*:1]; X3 = C=CCCC[C@H](O[*:2])C(C)(C)C(=O)[*:1]; X2 = CCCCC[C@H](O[*:2])C(C)(C)C(=O)[*:1]; Hmp(2R,3S) = CC[C@H](C)[C@@H](O)C(=O)O; PhLac = O=C(O)[C@@H](O)Cc1ccccc1; NMeV = CN[C@H](C(=O)O)C(C)C; NMeA = CN[C@@H](C)C(=O)O

Key:
NCI-H460 [1] = experiment: Cytotoxicity against human H460 cells at 30 ug/mL after 48 hrs by MTT assay; assay type: functional, cell-based
NCI-H460 [2] = experiment: Cytotoxicity against human H460 cells after 48 hrs by MTT assay; assay type: functional; conditions: NCI-H460, 48 h, read-out: LD50 (the source's name)

C#CCCC[C@@H]1OC(=O)[C@H](C(C)C)NC(=O)[C@H](C)N(C)C(=O)[C@@H]2CCCN2C(=O)[C@H](Cc2ccccc2)OC(=O)[C@H](C(C)C)N(C)C(=O)[C@H](C(C)C)NC(=O)C1(C)C (V[NMeV][PhLac]P[NMeA]V; linker N-C via X1)
Activity (NCI-H460 [1]): inactive

CCCCC[C@@H]1OC(=O)[C@H](C(C)C)NC(=O)[C@H](C)N(C)C(=O)[C@@H]2CCCN2C(=O)[C@H](Cc2ccccc2)OC(=O)[C@H](C(C)C)N(C)C(=O)[C@H](C(C)C)NC(=O)C1(C)C (V[NMeV][PhLac]P[NMeA]V; linker N-C via X2)
Activity (NCI-H460 [1]): inactive

C=CCCC[C@@H]1OC(=O)[C@H](C(C)C)NC(=O)[C@H](C)N(C)C(=O)[C@@H]2CCCN2C(=O)[C@H](Cc2ccccc2)OC(=O)[C@H](C(C)C)N(C)C(=O)[C@H](C(C)C)NC(=O)C1(C)C (V[NMeV][PhLac]P[NMeA]V; linker N-C via X3)
Activity (NCI-H460 [1]): inactive

C#CCCC[C@@H]1OC(=O)[C@H]([C@@H](C)O)NC(=O)[C@H](C(C)C)N(C)C(=O)[C@@H]2CCCN2C(=O)[C@@H]([C@@H](C)CC)OC(=O)[C@H](C(C)C)N(C)C(=O)[C@H](C(C)C)NC(=O)C1(C)C [VIEQUEAMIDE A] (V[NMeV][Hmp(2R,3S)]P[NMeV]T; linker N-C via X1)
CC50 (NCI-H460 [2]): 60 nM
